“Also recorded” adds a separate entry of the source.

The values that follow come from patent US20090182026A1, “ALPHA 2 ADRENERGIC AGONISTS” (ALLERGAN, INC., priority 2005, published 2009).

For one series, the system named is Alpha adrenergic. Put plainly: Alpha adrenergic activity of prior-application compound (statement). Particulars: background statement.
Another series concerns the target T1, alpha2A receptor (Homo sapiens, UniProt P08913).
T1 construct: expressed in transfected cells; host or cells: NIH-3T3
T1 sequence (P08913 1-465): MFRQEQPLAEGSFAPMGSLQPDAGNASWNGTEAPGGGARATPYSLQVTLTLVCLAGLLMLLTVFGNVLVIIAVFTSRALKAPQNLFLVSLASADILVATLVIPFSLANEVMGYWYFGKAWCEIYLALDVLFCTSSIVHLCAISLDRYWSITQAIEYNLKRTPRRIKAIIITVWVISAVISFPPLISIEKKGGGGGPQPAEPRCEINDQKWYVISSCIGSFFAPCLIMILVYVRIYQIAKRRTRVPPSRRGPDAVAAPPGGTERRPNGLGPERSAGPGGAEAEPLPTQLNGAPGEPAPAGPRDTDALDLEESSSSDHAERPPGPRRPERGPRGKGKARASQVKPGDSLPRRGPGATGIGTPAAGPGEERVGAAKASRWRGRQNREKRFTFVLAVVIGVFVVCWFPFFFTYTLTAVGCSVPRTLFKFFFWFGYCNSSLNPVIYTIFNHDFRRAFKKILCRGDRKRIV
Put plainly: RSAT assay, alpha2A receptor. The format is cell-based. The settings on record: NIH-3T3 cells, relative to brimonidine, NA = not active at concentrations less than 10 micromolar. Here is the method:
(§1) The RSAT assay measures a receptor-mediated loss of contact inhibition that results in selective proliferation of receptor-containing cells in a mixed population of confluent cells. The increase in cell number is assessed with an appropriate transfected marker gene such as […], the activity of which can be easily measured in a 96-well format. Receptors that activate the G protein, Gq, elicit this response. Alpha2 receptors, which normally couple to Gi, activate the RSAT response when coexpressed with a hybrid Gq protein that has a Gi receptor recognition domain, called Gq/i5.
(§2) NIH-3T3 cells are plated at a density of 2×10^6 cells in 15 cm dishes and maintained in Dulbecco's modified Eagle's medium supplemented with 10% calf serum. One day later, cells are cotransfected by calcium phosphate precipitation with mammalian expression plasmids encoding p-SV-β-galactosidase (5-10 μg), receptor (1-2 μg) and G protein (1-2 μg). 40 μg salmon sperm DNA may also be included in the transfection mixture. Fresh media is added on the following day and 1-2 days later, cells are harvested and frozen in 50 assay aliquots. Cells are thawed and 100 μl added to 100 μl aliquots of various concentrations of drugs in triplicate in 96-well dishes. Incubations continue 72-96 hr at 37° C. After washing with phosphate-buffered saline, β-galactosidase enzyme activity is determined by adding […] of the chromogenic substrate (consisting of 3.5 mM o-nitrophenyl-β-D-galactopyranoside and 0.5% nonidet P-40 in phosphate buffered saline), incubating overnight at 30° C. and measuring optical density at 420 nm. The absorbance is a measure of enzyme activity, which depends on cell number and reflects a receptor-mediated cell proliferation. The efficacy or intrinsic activity is calculated as a ratio of the maximal effect of the drug to the maximal effect of a standard full agonist for each receptor subtype. Brimonidine, also called UK14304, the chemical structure of which is shown below, is used as the standard agonist for the alpha2A, alpha2B and alpha2C receptors. […]

For a further series, the target named is T2, alpha2C receptor (Homo sapiens, UniProt P18825).
T2 construct: expressed in transfected cells; host or cells: NIH-3T3
T2 sequence (P18825 1-462): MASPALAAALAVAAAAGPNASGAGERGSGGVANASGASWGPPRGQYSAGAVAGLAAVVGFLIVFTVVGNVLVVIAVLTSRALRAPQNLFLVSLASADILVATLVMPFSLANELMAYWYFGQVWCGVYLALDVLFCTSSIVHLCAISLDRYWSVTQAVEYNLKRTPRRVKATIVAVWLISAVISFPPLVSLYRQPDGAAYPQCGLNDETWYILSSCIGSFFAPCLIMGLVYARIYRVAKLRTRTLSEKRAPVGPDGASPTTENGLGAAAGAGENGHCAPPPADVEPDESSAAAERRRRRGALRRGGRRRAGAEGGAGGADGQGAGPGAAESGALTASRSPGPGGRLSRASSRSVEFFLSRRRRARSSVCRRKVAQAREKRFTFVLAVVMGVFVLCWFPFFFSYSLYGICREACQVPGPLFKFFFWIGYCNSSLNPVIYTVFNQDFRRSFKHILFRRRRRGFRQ
In words: RSAT assay, alpha2C receptor. It counts as cell-based. The settings on record: NIH-3T3 cells, relative to brimonidine, NA = not active at concentrations less than 10 micromolar. As for the experimental part:
as §1, §2

The next series has as its target T3, alpha2B receptor (Homo sapiens, UniProt P18089).
T3 construct: expressed in transfected cells; host or cells: NIH-3T3
T3 sequence (P18089 1-450): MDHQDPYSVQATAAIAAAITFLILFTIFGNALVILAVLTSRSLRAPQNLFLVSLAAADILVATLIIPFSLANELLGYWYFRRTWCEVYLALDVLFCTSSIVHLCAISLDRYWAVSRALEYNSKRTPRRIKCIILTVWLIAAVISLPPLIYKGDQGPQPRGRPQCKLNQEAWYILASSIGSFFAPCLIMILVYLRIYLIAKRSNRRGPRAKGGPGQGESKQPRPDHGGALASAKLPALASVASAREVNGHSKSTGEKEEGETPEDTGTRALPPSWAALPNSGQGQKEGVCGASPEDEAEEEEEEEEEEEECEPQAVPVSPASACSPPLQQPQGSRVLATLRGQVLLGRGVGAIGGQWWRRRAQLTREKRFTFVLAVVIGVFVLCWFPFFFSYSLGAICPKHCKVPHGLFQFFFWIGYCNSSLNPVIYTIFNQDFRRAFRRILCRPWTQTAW
Put plainly: RSAT assay, alpha2B receptor. It counts as cell-based. The settings on record: NIH-3T3 cells, relative to brimonidine, NA = not active at concentrations less than 10 micromolar. As for the experimental part: as §1, §2

A further series has as its system α1. In words: RSAT assay, α1 receptor. It counts as cell-based. The settings on record: NIH-3T3 cells, ratio of maximal effect to that of standard full agonist, NA = not active at concentrations less than 10 micromolar. As for the experimental part:
as §1
NIH-3T3 cells are plated at a density of 2×10^6 cells in 15 cm dishes and maintained in Dulbecco's modified Eagle's medium supplemented with 10% calf serum. […] After washing with phosphate-buffered saline, β-galactosidase enzyme activity is determined by adding […] of the chromogenic substrate (consisting of 3.5 mM o-nitrophenyl-β-D-galactopyranoside and 0.5% nonidet P-40 in phosphate buffered saline), incubating overnight at 30° C. and measuring optical density at 420 nm. The absorbance is a measure of enzyme activity, which depends on cell number and reflects a receptor-mediated cell proliferation. The efficacy or intrinsic activity is calculated as a ratio of the maximal effect of the drug to the maximal effect of a standard full agonist for each receptor subtype. […]

Series [1] has as its system locomotor activity. In words: Sedation model, exploratory locomotor activity, rats. Particulars: for rat locomotor activity: 30 min after dosing (FIG. 3). The format is in vivo. As for the experimental part: (§3) The utility of alpha2-adrenergic agonists is limited by a range of side effects, particularly sedation and cardiovascular depression. The sedative activity of the compounds is assessed by measuring their ability to reduce the exploratory activity of mice and rats when placed in a dark chamber 30 min following dosing. The animal's activity is determined automatically by placing it in a digicom analyzer chamber (Omnitech Electronic). These chambers have photocells criss-crossing the box that are broken as the animal moves around. The computer analyzes this movement and records total activity over a 5-min time period. […] This represents greater than a 300-fold margin of safety (FIG. 4).

The subject of series [2] is intraocular pressure (IOP). In words: IOP model, normotensive rabbits. The settings on record: for lowering of IOP: qualitative statement (FIG. 2); for decrease in IOP: topical, rabbit eye (FIG. 2). The format is in vivo, New Zealand Rabbits. Here is the method:
Male New Zealand Rabbits (6-7; 2-3.5 kg) are used to evaluate drug effects on normotensive IOP measurements. The rabbits are carefully handled so as to minimize excitement. Approximately 25 ul of dilute OphtheticR (0.05%) topical anesthesia is administered to each eye. An initial IOP determination is made in both eyes. Rabbits with 3 mmHg or greater difference in IOP between its right and left eyes are replaced at this time.
Immediately following the T=0 reading in both eyes the rabbits are treated with the compound by a topical route. 35 ul of the test solution is instilled onto the cornea of the randomly selected test eye. Pressure readings are taken at various times post-instillation. Animals are kept in their cages with access to food and water between measurements. Pressure readings utilize a Model 30 Classic™ Pneumatonometer to measure intraocular pressure (IOP) non-invasively through applanation tonometry. compound 1 (0.1%) caused a 20% decrease in IOP and its ester, AGN 204216 (0.03%), caused a 30% decrease in IOP (FIG. 2)

The next series concerns tactile hypersensitivity. In words: Mouse model of tactile hypersensitivity (sulprostone). It counts as in vivo, Mice. The settings on record: for activity in mouse model of tactile hypersensitivity: general statement, no dose. As for the experimental part: Mice (5-6; 25-35 g) are injected with sulprostone (300 ng/kg intraperitoneal), a prostaglandin receptor agonist that activates EP1 prostaglandin receptors. This chemical stimulus results in sensitivity to light stroking of their flanks with a paintbrush, which is assessed every five minutes from 15 minutes to 50 minutes post-injection. Animals are scored as 0 (no response), 1 (avoidance) or 2 (vigorous avoidance, vocalization) every five minutes and the scores are summed to yield a total hypersensitivity score (maximum=16).
Compounds were tested for their ability to reduce the tactile hypersensitivity score when administered 15 min prior to the sulprostone. […] An oral dose of 300 ug/kg was also active. An ester prodrug, compound 3, was also tested orally.

For series [3], the system named is locomotor activity. Put plainly: Sedation model, exploratory locomotor activity, mice. It counts as in vivo. As for the experimental part:
as §3

In the case of `O=c1[nH]cc(CC2CCC=C(CO)C2)[nH]1` (centres unmarked), in the series on Alpha adrenergic, the Alpha adrenergic activity result was “no Alpha adrenergic activity”.

As for `NCC1=CCCC(Cc2c[nH]c(=S)[nH]2)C1` (centres unmarked), on alpha2A receptor, the “Intrinsic activity α2A” value came out at 0.81. Also, the “Intrinsic activity α2C” value on alpha2C receptor is given as 0.95. Further, the “Intrinsic activity α2B” value on alpha2B receptor is on record as 0.86.

Consider `OCC1=CCC[C@@H](Cc2c[nH]c(=S)[nH]2)C1`, for which, on alpha2A receptor, the “Intrinsic activity α2A” value was 0.9. The “Intrinsic activity α1” value in the series with α1 stood at 1.1. The “Intrinsic activity α2C” value on alpha2C receptor came to 1.1. The “Intrinsic activity α2B” value at alpha2B receptor amounted to 1.0.

As to `OCC1=CCCC(Cc2c[nH]c(=S)[nH]2)C1` (centres unmarked) [Compound 1, 4-(3-hydroxymethyl-cyclohex-3-enylmethyl)-1,3-dihydro-imidazole-2-thione], the rat locomotor activity entry with locomotor activity [1] (intraperitoneal doses up to at least 3 mg/kg) and in the series on locomotor activity [1] (oral doses up to at least 10 mg/kg) was “did not decrease rat locomotor activity” in each case. The “sedation / decrease of locomotor activity” value in the series with locomotor activity [1] (qualitative statement, no dose) was “does not sedate rats”. Besides, in the series with locomotor activity [1] (rat locomotor activity vs tactile hypersensitivity doses), the “margin of safety (non-sedating dose vs effective dose)” value is recorded as at least 30 fold. In addition, in series [2], the “lowering of IOP” value is “lower rabbit IOP”. Moreover, in series [2] (35 ul of 0.1% solution), the “decrease in IOP” value worked out at 20%. Also, in the series with tactile hypersensitivity (dosed intraperitoneally 15 min prior to sulprostone, dose response), the “reduction of tactile hypersensitivity” value is listed as “reduced the hypersensitivity in a dose-related manner”. Further, the “effect on tactile hypersensitivity” value in the series with tactile hypersensitivity (intraperitoneal, 30 ug/kg) was “partial effect”; with tactile hypersensitivity (intraperitoneal, 100 ug/kg), “full effect”; in the series on tactile hypersensitivity (oral dose of 300 ug/kg) it was “active”. For the same compound, the “total tactile hypersensitivity score” value with tactile hypersensitivity (intraperitoneal, 100 ug/kg, maximum=16, sulprostone 12-14, vehicle 4-6) is 5.

As to `O=C(CC1CCCC1)OCC1=CCCC(Cc2c[nH]c(=S)[nH]2)C1` (centres unmarked) [Compound 3, cyclopentyl-acetic acid 5-(2-thioxo-2,3-dihydro-1H-imidazol-4-ylmethyl)-cyclohex-1-enylmethyl ester], the sedation result in the series with locomotor activity [1] (rats, oral dose of 3 mg/kg) is “did not sedate”; in the series with locomotor activity [3] (mice, oral dose of 3 mg/kg), “did not sedate”. For the same compound, the “lowering of IOP” value in series [2] is reported as “lower rabbit IOP”. Moreover, the “decrease in IOP” value in [2] (35 ul of 0.03% solution) amounted to 30%. Besides, the “margin of safety / therapeutic window” value in the series on locomotor activity [3] (oral, mice or rats (FIG. 4)) is above 300 fold. Also, the “effect on tactile hypersensitivity” value in the series with tactile hypersensitivity (oral dose of 30 ug/kg) was “full effect”. Further, the “alleviation of tactile hypersensitivity” value in the series on tactile hypersensitivity (oral dosing, dose response (FIG. 1)) is listed as “alleviates tactile hypersensitivity; also recorded: very potent at alleviating the tactile sensitivity in a dose-related manner”.

As for `Brc1c(N=C2NCCN2)ccc2nccnc12` [brimonidine, reference compound], the “activity in mouse model of tactile hypersensitivity” value in the series with tactile hypersensitivity is given as “active”.

In the case of `Clc1cccc(Cl)c1N=C1NCCN1` [clonidine, reference compound], the “activity in mouse model of tactile hypersensitivity” value with tactile hypersensitivity was “active”.

As to `OCC1=CCCC(Cc2c[nH]c(=S)[nH]2)C1` (centres unmarked) [drawing 35], the “Intrinsic activity α2A” value on alpha2A receptor is listed as 0.85. In addition, the “Intrinsic activity α1” value with α1 was 0.93. Further, the “Intrinsic activity α2C” value on alpha2C receptor was 1.10. Besides, the “Intrinsic activity α2B” value at alpha2B receptor amounted to 0.98.
